From US7749976B2, “Isolated PTPMT1 protein which mediates insulin production and uses thereof” (The Regents of the University of California, priority 2005, dated 2010)

Tests used:
Assay type in all cases: cell-based, rat
PTPMT1 = experiment: Knockdown of PTPMT1 expression (immunoblot); conditions: Amaxa nucleoporation, INS-1 832/13 cells
Procedure: (§1) PTPMT1 expression in INS-1 832/13 cells was knocked down using 200 pmol of Ambion siRNA (sense: 5′-GUCUGUGGAUGACAAAGAAtt-3′ (SEQ ID NO:3), antisense: UUCUUUGUCAUCCACAGACtt-3′ (SEQ ID NO:4)) in an Amaxa nucleoporator with buffer T on program T-20, according to the manufacturer's protocol. Approximately 72 hrs post siRNA treatment, cells were treated as outlined in the text, pelleted and lysed in 2% TCA via sonication and/or vortexing. Precipitates were pelleted at 13,200 rpm for 2 minutes. The supernatant was removed, neutralized with 0.5 M Tris pH 7.4, and analyzed for ATP using Promega's ENLITEN luciferase bioluminescence reagent at an appropriate dilution. All ATP measurements were normalized to protein levels, as measured by the BCA method (Pierce). ADP levels were determined by converting ADP to ATP with pyruvate kinase, remeasuring ATP by the above assay, and subtracting the initial ATP readings, as reported (Gorman et al., 2003).
FIG. 10 illustrates that PTPMT1 is involved in the regulation of mitochondrial ATP production. […] In C whole cell ADP was measured as above.
To simultaneously assess the effect that knockdown of PTPMT1 has on mitochondrial phosphoproteins and PI(5)P levels, its expression was knocked-down in a large quantity of INS-1 832/13 cells using adenovirus-delivered siRNA. […]

INS-1 832/13 cells [1] = experiment: Glucose-stimulated insulin secretion assay; conditions: basal (3 mM) and glucose stimulated (15 mM) conditions, out to 120 min
Procedure: INS-1 832/13 cells (5×10^6 per reaction) were electroporated as above, and split between 4 wells of a 12-well plate. After 72 hours, cells were washed once with low glucose (3 mM) standard assay buffer (SAB: 114 mM NaCl, 4.7 mM KCl, 1.2 mM KH2PO4, 1.16 mM MgSO4, 20 mM HEPES pH 7.2, 25.5 mM NaHCO3, 10 mM CaCl2, 0.2% BSA), and then preincubated for 2 hours in fresh low glucose SAB. After preincubation, 1 mL of low or high (15 mM) glucose SAB was added to each well. At the end of the incubation time, the SAB was removed and saved, and the cells were washed once in PBS, and lysed by freezing and thawing in a Tris-EDTA solution (20 mM Tris pH 7.4, 20 mM EDTA pH 8.0, 10 mM DTT, protease inhibitors). A Bio-Rad protein assay was performed on each lysate sample to standardize the insulin assay results for protein. The ^125I-insulin Coat-A-Count RIA (Diagnostic Products Corp.) was used to assay SAB samples for insulin content.
To test this, INS-1 832/13 cells were again treated with luciferase (control) or PTPMT1 siRNA. Seventy-two hours post siRNA treatment, cells were washed with PBS, and incubated in media containing 3 mM glucose for 2 hrs to normalize insulin release. Fresh media containing either 3 mM (low) or 15 mM (high) glucose media was then added to the cells and insulin secretion analyzed out to 120 min. […]

INS-1 832/13 cells [2] = experiment: ATP and ADP assays in siRNA-treated INS-1 832/13 cells
Procedure: as §1
Given PTPMT1's likely juxtaposition with members of the respiratory chain on the inner mitochondrial membrane, assessment of PTPMT1's endogenous function was carried out by measuring its effect on cellular ATP levels. […] Seventy-two hours post siRNA treatment, cells were washed and incubated in a 3.0 mM glucose medium for 2 hr. Cells were then lysed and ATP levels analyzed using a luciferase based luminometry reaction. Strikingly, knockdown of PTPMT1 expression increased ATP levels by an average of 82% over control cells across three separate experiments (FIG. 10B). […] ATP/ADP ratio (FIG. 10C). […] AMPK serves as a sensor of cellular energy status, becoming dephosphorylated (inactivated) when the cellular AMP:ATP ratio decreases. Consistent with the above data, AMPK is more highly phosphorylated in the control cells following the above incubation in low glucose (FIG. 10D). Thus, knockdown of PTPMT1 results in a true increase in cellular energy status, as opposed to merely a general increase in the cellular adenine pool.

For “PTPMT1 siRNA: Ambion siRNA sense 5′-GUCUGUGGAUGACAAAGAAtt-3′ (SEQ ID NO:3), antisense UUCUUUGUCAUCCACAGACtt-3′ (SEQ ID NO:4) (sense GUCUGUGGAUGACAAAGAATT; antisense UUCUUUGUCAUCCACAGACTT; chemistry not given here)”, the “Endogenous PTPMT1 expression” value (PTPMT1) was “highly effective at ablating endogenous PTPMT1 expression”, the “Insulin secretion versus control” value (INS-1 832/13 cells [1]) was “increased insulin secretion at nearly all time points” and the “Increase in ATP levels over control cells” value (INS-1 832/13 cells [2]; 72 h post siRNA, 2 hr in 3.0 mM glucose, average of three experiments) was 82%. The “ADP levels versus control” value (INS-1 832/13 cells [2]; 72 h post siRNA, low glucose 2 h) was “Very little, if any, difference” and the “ATP levels versus control with FCCP” value (INS-1 832/13 cells [2]; same buffer containing 10 μM FCCP) was “no difference in ATP levels”.
